Seven molecules from ChEMBL document CHEMBL3132767, “Validation of host factors of HIV integration as novel drug targets for anti-HIV therapy” (Medchemcomm, 2014) can be followed below.

Data set [1] in a line: Cytotoxicity against human MT4 cells by MTT assay. The format is cell-based. In general terms: Tetrazolium assays rely on reduction of a dye to a coloured formazan, in cell work by metabolically active cells.
The nature of data set [2]: Selectivity index, ratio of CC50 for human MT4 cells to EC50 for HIV1 3B infected in human MT4 cells. It is filed as toxicity, cell-based. The note with it: MT4 cells (uninfected for CC50; HIV-1 3B infected for EC50).
Data set [3] concerns Human immunodeficiency virus 1. Nature of the data set: Antiviral activity against HIV1 3B infected in human MT4 cells assessed as inhibition of viral replication by MTT assay. It is filed as functional, organism-based. The note with it: Human immunodeficiency virus 1, 3B.
For data set [4], the system named is Human immunodeficiency virus 1. Nature of the data set: Inhibition of LEDGF/p75-HIV1 integrase interaction at 100 uM by Alphascreen assay. On the technique in general: Alpha assays give light when donor and acceptor beads are brought close together.

SMILES strings stand for the structures.

Usually CC50 stands for the concentration at which the toxic effect on the cells reaches its halfway point. Low values mean harm at low concentration, high ones better tolerance by the cells. What is called EC50 is the concentration that produces a half-maximal response. Take `C=CCC(C(=O)O)c1c(-c2ccccc2)c2cc(Cl)ccc2[nH]c1=O` (stereo not drawn): the CC50 in data set [1] worked out at 67.3 µM. For the same molecule, the selectivity ratio in data set [2] amounted to 6. Also, in data set [3], the EC50 was 12.4 µM.
A word on the inhibition: it is how much of the control response was suppressed. In data set [4], `Cn1c(=O)c(/C(=N/c2ccccc2)c2nnn[nH]2)c(O)c2ccccc21` showed an inhibition of 36%.
In data set [1], `CCCC(C(=O)O)c1cnc2sc(C)cc2c1-c1ccc(C)cc1` (stereo not drawn) showed a CC50 of 72.2 µM. Besides, the selectivity ratio in data set [2] came out at 95. Moreover, the EC50 in data set [3] was 0.76 µM.
For `CCCC(C(=O)O)c1c(-c2ccccc2)c2cc(Cl)ccc2n(CCC)c1=O` (stereo not drawn) the same measures were 64.4 µM, 6 and 10.8 µM.
For `O=C(O)Cc1c(-c2ccccc2)c2cc(Cl)ccc2[nH]c1=O` the same measures were above 150 µM, above 3 and 41.9 µM.
On to `CCCC(C(=O)O)c1c(C)nc2ccc(Cl)cc2c1-c1ccccc1` (stereo not drawn), for which half-maximal cytotoxicity in data set [1] (CC50) was put at 67.3 µM. In data set [2], the selectivity ratio amounted to 25. For the same molecule, the EC50 in data set [3] turned out to be 2.35 µM.
The molecule `Cc1ccc(-c2c(C(OC(C)(C)C)C(=O)O)cnc3sc(C)cc23)cc1` (stereo not drawn) had a CC50 in data set [1] of 96 µM. In data set [2], the selectivity ratio was determined as 1390.
